Experimental data: ChEMBL document CHEMBL1153822, “Conformationally constrained peptidomimetic inhibitors of signal transducer and activator of transcription. 3: Evaluation and molecular modeling” (J Med Chem, 2009)
Numbered stars: 1 amine (or outer) side, 2 acyl side, 3 side chain; on linkers, the order of the positions; unused ones are H or OH. Square brackets hold non-standard residues; d marks the D form. Peptide text beside a SMILES is read from it. * marks the point of attachment. X4 = O=C([C@@H]1Cc2ccc(OP(=O)(O)O)cc2CN1[*:1])[*:2]; pY = N[C@@H](Cc1ccc(OP(=O)(O)O)cc1)C(=O)O; X7 = O=C(Cc1c[nH]c2ccc(OP(=O)(O)O)cc12)*; aThr = C[C@H](O)[C@H](N)C(=O)O

Target: Signal transducer and activator of transcription 3 (Homo sapiens, UniProt P40763)
Assay: Inhibition of Stat3 by fluorescence polarization assay

Sequence of Signal transducer and activator of transcription 3 (P40763 whole entry): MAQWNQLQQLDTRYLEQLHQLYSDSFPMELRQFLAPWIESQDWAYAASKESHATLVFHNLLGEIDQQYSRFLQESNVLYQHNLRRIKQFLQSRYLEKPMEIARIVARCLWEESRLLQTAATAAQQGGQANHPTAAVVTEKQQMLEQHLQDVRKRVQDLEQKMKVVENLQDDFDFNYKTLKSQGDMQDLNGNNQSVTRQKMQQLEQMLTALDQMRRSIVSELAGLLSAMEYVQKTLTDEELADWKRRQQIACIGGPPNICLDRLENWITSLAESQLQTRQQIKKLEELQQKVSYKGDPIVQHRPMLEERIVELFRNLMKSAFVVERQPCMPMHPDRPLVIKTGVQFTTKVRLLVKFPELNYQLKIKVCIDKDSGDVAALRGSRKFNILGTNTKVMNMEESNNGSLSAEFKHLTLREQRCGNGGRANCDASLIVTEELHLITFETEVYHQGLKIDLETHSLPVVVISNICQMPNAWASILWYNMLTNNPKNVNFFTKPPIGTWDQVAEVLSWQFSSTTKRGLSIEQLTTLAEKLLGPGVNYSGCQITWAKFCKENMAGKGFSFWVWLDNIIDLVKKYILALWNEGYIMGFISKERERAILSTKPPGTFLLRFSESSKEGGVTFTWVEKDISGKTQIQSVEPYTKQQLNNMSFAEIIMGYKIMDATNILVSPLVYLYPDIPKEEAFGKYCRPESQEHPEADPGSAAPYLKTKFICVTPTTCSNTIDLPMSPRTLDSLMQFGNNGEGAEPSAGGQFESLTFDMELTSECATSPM

For CC(C)C[C@H](NC(=O)/C=C/c1ccc(OP(=O)(O)O)cc1)C(=O)N1CCC[C@H]1C(=O)N[C@@H](CCC(N)=O)C(=O)NCc1ccccc1, which IC50 is on record?
The IC50 was 0.138 µM.

How did the IC50 turn out when NC(=O)CC[C@H](NC(=O)[C@@H]1CC[C@@H]2CC[C@H](NC(=O)/C=C/c3ccc(OP(=O)(O)O)cc3)C(=O)N21)C(=O)NCc1ccccc1 was run?
The IC50 was 0.604 µM.

With CC(C)NC(=O)[C@H](CCC(N)=O)NC(=O)[C@@H]1Cc2cccc3c2N1C(=O)[C@@H](NC(=O)/C=C/c1ccc(OP(=O)(O)O)cc1)CC3 as the compound, how does the IC50 read?
Its IC50 is 0.305 µM.

With NC(=O)CC[C@H](NC(=O)[C@@H]1Cc2cccc3c2N1C(=O)[C@@H](NC(=O)/C=C/c1ccc(OP(=O)(O)O)cc1)CC3)C(N)=O as the compound, how does the IC50 read?
The IC50 was 0.233 µM.

For NC(=O)CC[C@H](NC(=O)[C@@H]1Cc2cccc3c2N1C(=O)[C@@H](NC(=O)/C=C/c1ccc(OP(=O)(O)O)cc1)CC3)C(=O)NCc1ccccc1, which IC50 is on record?
The IC50 was 0.162 µM.

Which IC50 does the source give for NC(=O)CC[C@H](NC(=O)[C@@H]1Cc2cccc3c2N1C(=O)[C@@H](NC(=O)c1cc2cc(OP(=O)(O)O)ccc2[nH]1)CC3)C(=O)NCc1ccccc1 here?
Its IC50 is 0.19 µM.

For CNC(=O)[C@H](CCC(N)=O)NC(=O)[C@@H]1Cc2cccc3c2N1C(=O)[C@@H](NC(=O)/C=C/c1ccc(OP(=O)(O)O)cc1)CC3, which IC50 is on record?
Its IC50 is 0.269 µM.

With CS(=O)(=O)CC[C@H](NC(=O)[C@@H]1Cc2cccc3c2N1C(=O)[C@@H](NC(=O)/C=C/c1ccc(OP(=O)(O)O)cc1)CC3)C(N)=O as the compound, how does the IC50 read?
Its IC50 is 7.03 µM.

Which IC50 does the source give for CCCC[C@H](NC(=O)[C@@H]1Cc2cccc3c2N1C(=O)[C@@H](NC(=O)/C=C/c1ccc(OP(=O)(O)O)cc1)CC3)C(N)=O here?
The IC50 was 19.2 µM.

How did the IC50 turn out when O=C(O)CCCNC(=O)[C@@H]1Cc2cccc3c2N1C(=O)[C@@H](NC(=O)/C=C/c1ccc(OP(=O)(O)O)cc1)CC3 was run?
The IC50 was 0.815 µM.

With C[C@H](NC(=O)[C@@H]1Cc2cccc3c2N1C(=O)[C@@H](NC(=O)/C=C/c1ccc(OP(=O)(O)O)cc1)CC3)C(N)=O as the compound, how does the IC50 read?
The IC50 was 25.1 µM.

For COC(=O)[C@H](CCC(N)=O)NC(=O)[C@@H]1Cc2cccc3c2N1C(=O)[C@@H](NC(=O)/C=C/c1ccc(OP(=O)(O)O)cc1)CC3, which IC50 is on record?
Its IC50 is 0.141 µM.

How did the IC50 turn out when C[S+]([O-])CC[C@H](NC(=O)[C@@H]1Cc2cccc3c2N1C(=O)[C@@H](NC(=O)/C=C/c1ccc(OP(=O)(O)O)cc1)CC3)C(N)=O (some centres not stated) was run?
Its IC50 is 7.6 µM.

How did the IC50 turn out when NC(=O)CC[C@H](NC(=O)[C@H]1CC[C@H]2CC[C@H](NC(=O)/C=C/c3ccc(OP(=O)(O)O)cc3)C(=O)N21)C(=O)NCc1ccccc1 was run?
Its IC50 is 59.8 µM.

How did the IC50 turn out when NC(=O)CC[C@H](NC(=O)[C@@H]1CC[C@H]2CC[C@H](NC(=O)/C=C/c3ccc(OP(=O)(O)O)cc3)C(=O)N21)C(=O)NCc1ccccc1 was run?
Its IC50 is 45.7 µM.

NC(=O)CC[C@H](NC(=O)[C@@H]1Cc2cccc3c2N1C(=O)[C@@H](NC(=O)/C=C/c1ccc(OP(=O)(O)O)cc1)C=C3)C(=O)NCc1ccccc1 was tested. Which IC50 did it give?
Its IC50 is 0.195 µM.

With NC(=O)CC[C@H](NC(=O)[C@@H]1Cc2cccc3c2N1C(=O)[C@@H](NC(=O)/C=C/c1ccc(OP(=O)(O)O)cc1)CC3)C(=O)O as the compound, how does the IC50 read?
Its IC50 is 0.359 µM.

NC(=O)[C@@H]1Cc2cccc3c2N1C(=O)[C@@H](NC(=O)/C=C/c1ccc(OP(=O)(O)O)cc1)CC3 was tested. Which IC50 did it give?
The IC50 was 35.6 µM.

Which IC50 does the source give for NC(=O)C1CCN(C(=O)[C@@H]2Cc3cccc4c3N2C(=O)[C@@H](NC(=O)/C=C/c2ccc(OP(=O)(O)O)cc2)CC4)C1 (some centres not stated) here?
Its IC50 is 0.595 µM.

With CC(=O)N1Cc2cc(OP(=O)(O)O)ccc2C[C@H]1C(=O)N[C@@H](CC(C)C)C(=O)N1CCC[C@H]1C(=O)N[C@@H](CCC(N)=O)C(=O)N[C@H](C(N)=O)[C@@H](C)O (Ac-[X4]LPQT-NH2) as the compound, how does the IC50 read?
The IC50 was greater than 100 µM.

CC(=O)N[C@@H](Cc1ccc(OP(=O)(O)O)cc1)C(=O)N[C@@H](CC(C)C)C(=O)N1CCC[C@H]1C(=O)N[C@@H](CCC(N)=O)C(=O)N[C@H](C(N)=O)[C@H](C)O (Ac-[pY]LPQ[aThr]-NH2) was tested. Which IC50 did it give?
Its IC50 is 0.739 µM.

With CC(C)C[C@H](NC(=O)Cc1c[nH]c2ccc(OP(=O)(O)O)cc12)C(=O)N1CCC[C@H]1C(=O)N[C@@H](CCC(N)=O)C(=O)N[C@H](C(N)=O)[C@@H](C)O (X7-LPQT-NH2) as the compound, how does the IC50 read?
Its IC50 is greater than 100 µM.
